Structures are written as SMILES.

For assay [1], the target named is T1, Full length human recombinant HDAC8 protein (Homo sapiens, UniProt Q9BY41).
T1 construct: Full length human recombinant HDAC8 protein was expressed in baculoviral system; made in house
T1 sequence (Q9BY41 1-377): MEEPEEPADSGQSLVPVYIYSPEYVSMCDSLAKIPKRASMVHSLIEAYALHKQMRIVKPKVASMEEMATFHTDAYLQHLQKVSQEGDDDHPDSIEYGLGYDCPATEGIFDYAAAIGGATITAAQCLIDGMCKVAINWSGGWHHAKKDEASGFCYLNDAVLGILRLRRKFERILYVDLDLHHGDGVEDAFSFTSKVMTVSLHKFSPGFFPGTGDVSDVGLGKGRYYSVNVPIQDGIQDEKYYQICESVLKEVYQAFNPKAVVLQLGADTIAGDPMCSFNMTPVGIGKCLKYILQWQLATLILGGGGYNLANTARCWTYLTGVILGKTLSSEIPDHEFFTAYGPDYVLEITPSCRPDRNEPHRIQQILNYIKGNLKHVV
Kind of assay: In vitro histone deacetylase assay: enzymatic HDAC8 assay, electrophoretic mobility shift. Type of assay: biochemical. The following applies: substrate RHKK(Ac)-NH2, 1 nM enzyme, compounds listed under IC50 range headings. In outline:
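Baculovirus-expressed full-length human HDAC8 (1 nM) deacetylated 2 µM fluorescent RHKK(Ac)-NH2 peptide in pH 7.5 HEPES, 1% DMSO, at 25 °C, with 12 compound concentrations at 3× spacing. SDS-quenched; product and substrate resolved by microfluidic electrophoresis, P/(S+P) converted to percent inhibition, and IC50 obtained by 4-parameter fit.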
On the technique in general: Mobility shift assays separate free from complexed probe on a gel.

Assay [2] concerns the target T2, Recombinant N-terminal GST tag full-length human HDAC8 (Homo sapiens, UniProt Q9BY41).
T2 construct: Recombinant N-terminal GST tag full-length human HDAC8; purchased SignalChem H90-30G-1000; host or cells: Sf9 insect cells (baculovirus)
T2 sequence (Q9BY41 1-377): T1 sequence (Q9BY41 1-377)
Kind of assay: HDAC8 probe binding assay, time resolved fluorescence (TRF). The settings on record: fluorescein labeled pan-HDAC inhibitor probe, 16 hours incubation, compounds listed under IC50 range headings. In outline:
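TR-FRET probe displacement using GST-tagged full-length human HDAC8 (Sf9-expressed, 2.5 nM) with 1.5 nM fluorescein-labelled pan-HDAC inhibitor probe and anti-GST terbium, in HEPES pH 7.5 buffer with GSH, BGG, Triton X-100. Compounds 25 μM–1.3 nM, 10-point; 16 h at room temperature. IC50 from 4-parameter fit of % inhibition versus no-enzyme and DMSO controls.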

In the case of `O=C(/C=C/c1ccccc1N1CCN(S(=O)(=O)c2ccc(OC(F)(F)F)cc2)CC1=O)NO` [Example I-527, (E)-N-hydroxy-3-(2-(2-oxo-4-((4-(trifluoromethoxy)phenyl)sulfonyl)piperazin-1-yl)phenyl)acrylamide], the concentration for half-maximal inhibition (IC50) (commonly the concentration that inhibits the measured activity by half) in assay [1] was under 1000 nM; in assay [2], at most 1000 nM.
For the molecule `COc1ccc(NC(=O)N2CCN(c3ccccc3/C=C/C(=O)NO)C(=O)C2)cc1` [Example I-529, (E)-4-(2-(3-(hydroxyamino)-3-oxoprop-1-en-1-yl)phenyl)-N-(4-methoxyphenyl)-3-oxopiperazine-1-carboxamide], the half-inhibitory concentration (IC50) in assay [1] was under 1000 nM; in assay [2], at most 1000 nM.
Taken in the same sequence, the figures for `O=C(/C=C/c1ccccc1N1CCN(Cc2ccc(F)cc2)CC1=O)NO` [Example I-530, (E)-3-(2-(4-(4-fluorobenzyl)-2-oxopiperazin-1-yl)phenyl)-N-hydroxyacrylamide] were under 1000 nM and at most 1000 nM.
Taken in the same sequence, the figures for `Cc1ccc(N2CCN(c3ccccc3/C=C/C(=O)NO)C(=O)C2)cc1` [Example I-533, (E)-N-hydroxy-3-(2-(2-oxo-4-(p-tolyl)piperazin-1-yl)phenyl)acrylamide] were under 1000 nM and at most 1000 nM.
In the same order, the values of `O=C(/C=C/c1ccccc1NC(=O)c1ccccc1Oc1ccc(Cl)cc1F)NO` [Example I-534, (E)-2-(4-chloro-2-fluorophenoxy)-N-(2-(3-(hydroxyamino)-3-oxoprop-1-en-1-yl)phenyl)benzamide] are under 1000 nM and at most 1000 nM.
With `Cc1ccc(Oc2ccccc2C(=O)Nc2ccccc2/C=C/C(=O)NO)cn1` [Example I-535, (E)-N-(2-(3-(hydroxyamino)-3-oxoprop-1-en-1-yl)phenyl)-2-((6-methylpyridin-3-yl)oxy)benzamide], the IC50 was under 1000 nM in assay [1] and at most 1000 nM in assay [2].
Regarding `O=C(/C=C/c1ccccc1NC(=O)c1cccc(Oc2ccccc2)c1)NO` [Example I-536, (E)-N-(2-(3-(hydroxyamino)-3-oxoprop-1-en-1-yl)phenyl)-3-phenoxybenzamide], the figures for the IC50 in assay [1] and in assay [2] were under 1000 nM and at most 1000 nM, respectively.
Turning to `O=C(/C=C/c1ccccc1NC(=O)c1ncccc1Oc1ccccc1)NO` [Example I-537, N-{2-[(1E)-2-(hydroxycarbamoyl)eth-1-en-1-yl]phenyl}-3-phenoxypyridine-2-carboxamide], the 50% inhibitory concentration (IC50) in assay [1] was under 1000 nM; in assay [2] it was at most 1000 nM.
Taken in the same sequence, the figures for `CC(C)(C)OC(=O)N1CCCCC12CCN(c1ccccc1/C=C/C(=O)NO)CC2` [Example I-538, tert-butyl (E)-9-(2-(3-(hydroxyamino)-3-oxoprop-1-en-1-yl)phenyl)-1,9-diazaspiro[5.5]undecane-1-carboxylate] were under 1000 nM and at most 1000 nM.
With `O=C(/C=C/c1ccccc1NC(=O)c1ncsc1Oc1ccccc1)NO` [Example I-539, N-{2-[(1E)-2-(hydroxycarbamoyl)eth-1-en-1-yl]phenyl}-5-phenoxy-1,3-thiazole-4-carboxamide], the IC50 in assay [1] was under 1000 nM; in assay [2], at most 1000 nM.
In the same order, the values of `O=C(/C=C/c1ccccc1NC(=O)c1ccccc1Oc1ccc(C(F)(F)F)nc1)NO` [Example I-540, (E)-N-(2-(3-(hydroxyamino)-3-oxoprop-1-en-1-yl)phenyl)-2-((6-(trifluoromethyl)pyridin-3-yl)oxy)benzamide] are under 1000 nM and at most 1000 nM.
As to `CC(C)(C)OC(=O)N1CCCC12CCN(c1ccccc1/C=C/C(=O)NO)C2` (centres unmarked) [Example I-541, tert-butyl (E)-7-(2-(3-(hydroxyamino)-3-oxoprop-1-en-1-yl)phenyl)-1,7-diazaspiro[4.4]nonane-1-carboxylate], the IC50 is under 1000 nM in assay [1] and at most 1000 nM in assay [2].
With `CC(C)(C)OC(=O)N1CC2(CCCN2c2ccccc2/C=C/C(=O)NO)C1` [Example I-542, tert-butyl (E)-5-(2-(3-(hydroxyamino)-3-oxoprop-1-en-1-yl)phenyl)-2,5-diazaspiro[3.4]octane-2-carboxylate], the values for the concentration for half-maximal inhibition (IC50) in assay [1] and in assay [2] were under 1000 nM and at most 1000 nM, respectively.
In the same order, the values of `CC(C)(C)OC(=O)N1CCCCC12CCN(c1ccccc1/C=C/C(=O)NO)C2` (centres unmarked) [Example I-543, tert-butyl (E)-2-(2-(3-(hydroxyamino)-3-oxoprop-1-en-1-yl)phenyl)-2,6-diazaspiro[4.5]decane-6-carboxylate] are under 1000 nM and at most 1000 nM.
Taken in the same sequence, the figures for `O=C(/C=C/c1ccccc1NC(=O)c1nc(Oc2ccccc2)cs1)NO` [Example I-544, N-{2-[(1E)-2-(hydroxycarbamoyl)eth-1-en-1-yl]phenyl}-4-phenoxy-1,3-thiazole-2-carboxamide] were under 1000 nM and at most 1000 nM.
Turning to `CC(=O)N1CCCC12CCN(c1ccccc1/C=C/C(=O)NO)C2` (centres unmarked) [Example I-545], the IC50 in assay [1] is under 1000 nM; in assay [2], at most 1000 nM.
In the same order, the values of `CC(=O)N1CC2(CCCN2c2ccccc2/C=C/C(=O)NO)C1` [Example I-547, (E)-3-(2-(2-acetyl-2,5-diazaspiro[3.4]octan-5-yl)phenyl)-N-hydroxyacrylamide] are under 1000 nM and at most 1000 nM.
In the same order, the values of `O=C(/C=C/c1cc(C(F)(F)F)ccc1NC(=O)c1ccccc1Oc1ccc(F)cc1)NO` [Example I-556, 2-(4-fluorophenoxy)-N-{2-[(1E)-2-(hydroxycarbamoyl)eth-1-en-1-yl]-4-(trifluoromethyl)phenyl}benazmide] are under 1000 nM and at most 1000 nM.
In the same order, the values of `O=C(/C=C/c1cc(OC(F)(F)F)ccc1NC(=O)c1ccccc1Oc1ccc(F)cc1)NO` [Example I-557, 2-(4-fluorophenoxy)-N-{2-[(1E)-2-(hydroxycarbamoyl)eth-1-en-1-yl]-4-(trifluoromethoxy)phenyl}benzamide] are under 1000 nM and at most 1000 nM.
For the molecule `O=C(/C=C/c1ccccc1C(=O)N1CCCC1)NO` [II-15, (E)-N-hydroxy-3-(2-(pyrrolidine-1-carbonyl)phenyl)acrylamide], the IC50 in assay [1] was under 1000 nM; in assay [2], at most 1000 nM.
In the case of `O=C(/C=C/c1ccccc1C(=O)N1CCN(c2cnccn2)CC1)NO` [II-22, (E)-N-hydroxy-3-(2-(4-(pyrazin-2-yl)piperazine-1-carbonyl)phenyl)acrylamide], the 50% inhibitory concentration (IC50) in assay [1] is under 1000 nM; in assay [2], at most 1000 nM.
On to `O=C(/C=C/c1ccccc1C(=O)N1CCC[C@H](Cn2ccnc2)C1)NO` [II-27, (R,E)-3-(2-(3-((1H-imidazol-1-yl)methyl)piperidine-1-carbonyl)phenyl)-N-hydroxyacrylamide], for which the values for the IC50 in assay [1] and in assay [2] were under 1000 nM and at most 1000 nM, respectively.
Regarding `O=C(/C=C/c1ccccc1C(=O)N1CCC(F)(F)C1)NO` [II-28, (E)-3-(2-(3,3-difluoropyrrolidine-1-carbonyl)phenyl)-N-hydroxyacrylamide], the half-inhibitory concentration (IC50) in assay [1] was under 1000 nM; in assay [2], at most 1000 nM.
On to `O=C(/C=C/c1ccccc1S(=O)(=O)C1CCN(C(=O)Cc2ccc(Cl)cc2)CC1)NO` [II-29], for which the values for the half-maximal inhibitory concentration (IC50) in assay [1] and in assay [2] were under 1000 nM and at most 1000 nM, respectively.
In the case of `COc1ccc(/C=C/C(=O)NO)c(NC(=O)c2ccccc2Oc2ccc(Cl)cc2F)c1` [II-37, 2-(4-chloro-2-fluorophenoxy)-N-{2-[(1E)-2-(hydroxycarbamoyl)eth-1-en-1-yl]-5-methoxyphenyl}benzamide], the results for the half-maximal inhibitory concentration (IC50) in assay [1] and in assay [2] were under 1000 nM and at most 1000 nM, respectively.

The values are drawn from US10508077B2 (FORMA Therapeutics, Inc., priority 2015, dated 2019).
